# Assay results as given in PMC10374545, “A small molecule inhibitor of PTP1B and PTPN2 enhances T cell anti-tumor immunity” (Nature Communications, 2023).
# Where “and” joins values, the source holds several entries; their conditions need not be identical. Equal values may be shown once.
# Assays:
# [1] = tested on: SFK Y418 phosphorylation in naive CD8+ T cells; assay: TCR signaling, p-SFK (Y418) by flow cytometry; type: cell-based, mouse; conditions: for p-SFK MFI, single replicates: 10 μM 4 h, Fig. 2D raw data, listed as CMP-182
# Method: For assessing TCR signaling, single-cell suspensions of naïve (CD44^loCD62L^hi) lymph node CD8^+ T cells (isolated using the EasySep™ Mouse Naïve CD8^+ T cell Isolation Kit, Stemcell Technologies) were washed with ice-cold PBS supplemented with 2% (v/v) FBS and stained with fixable viable dye and fluorophore-conjugated antibodies to CD8 and CD4 on ice for 15 min. […] Cells were then incubated with 5 μg/ml hamster α-mouse CD3ε for 20 min on ice, washed with complete T cell medium supplemented with 1% (v/v) FBS, and then TCR cross-linked with goat α-hamster IgG (20 μg /ml, Sigma) for the indicated times at 37 °C. The reaction was terminated by the addition of paraformaldehyde (BD Cytofix™ Fixation Buffer) to a final concentration of 2% (v/v) on ice for 20 min. Fixed cells were washed in complete T cell medium/1% (v/v) FBS and permeabilised with 90% (v/v) methanol on ice for 30 min. Permeabilised cells were stained with fluorophore-conjugated antibodies to Y418 phosphorylated and activated SFKs (p-SFK; 1:100, Invitrogen) for 1 h at room temperature; p-SFK mean fluorescence intensities in CD8^+ T cells were determined by flow cytometry.
# NK cells = assay: NK cell proliferation (CFSE dilution); type: cell-based, mouse; conditions: IL-15, 96 h; 0.1 or 1 (µM in figure, µg/ml in legend)
# Method: proliferation in vitro. a-b) NK cells from C57BL/6 male mice (n=3 per group) were expanded […]
# µg/ml) or vehicle (1% v/v DMSO) in the absence of IL-15. a) NK cells were re-stimulated for 15 min with the indicated amounts of IL-15 and Y694 phosphorylated STAT-5 (p-STAT-5) mean fluorescence intensities (MFIs) determined by flow cytometry. b) Alternatively, NK cells were stained with carboxyfluorescein succinimidyl ester (CFSE, Invitrogen) and then re-stimulated with the indicated amounts of IL-15 for 96 h and NK cell proliferation (CFSE dilution) monitored by flow cytometry. c-d) NK cells from C57BL/6 male mice (n=3 per group) were expanded ex vivo in the presence of IL-15 and then pre-treated with CMP-182 (0.1 or 1 µg/ml) or vehicle in the absence of IL-15. NK cells were re-stimulated with either IL-12 (10 ng/ml) or IL-18 (100 ng/ml) or with α-NK1.1 or α-Ly49H for 4 h. NK cells were maintained in 10 ng/ml IL-15 throughout the 4 h incubation time. Percentages of c) IFN-γ+ and d) CD107A+ NK cells were determined by flow cytometry. In (a-d) results shown are means ± SEM and are representative of at least two independent experiments.
# AT3-OVA mammary tumors = assay: AT3-OVA mammary tumor growth in C57BL/6 mice; type: in vivo, mouse; design: Tumour weights, individual mice: unit not given here; conditions: for Tumour growth, individual mice: Figure 5A; for Tumour growth, single mice: sizes in mm^2, Fig. 3A, listed as CMP-182, 10 mg/kg
# Method: Male or female mice were injected subcutaneously with 5 × 10^5 MC38 tumor cells resuspended in 100 μl D-PBS into the flank. Alternatively, female mice were injected orthotopically with 5 × 10^5 AT3 or AT3-OVA or PTPN2-deleted AT3 or AT3-OVA tumor cells resuspended in 20 μl D-PBS into the fourth mammary fat pad. Tumor sizes were measured in two dimensions (mm^2) using electronic callipers two to three times per week as soon as tumors were palpable (20–25 mm^2).
# [2] = Serum liver enzymes AST and ALT; type: in vivo, mouse; design: Serum ALT: unit not given here
# Excerpt: CD3ε (BD Biosciences Cat# 553058) and CD28 (BD Biosciences Cat# 557393) antibodies for T cell stimulation and NK1.1 (BD Biosciences Cat# 564143) antibody for NK cell stimulation were purchased from BD Biosciences. Ly49H (clone 3D10, BioLegend Cat# 144702) antibody for NK stimulation was from BioLegend. For analyzing T cell signaling, p-(Y418) SFK (Thermo Fisher Scientific Cat# 14-9034-82) was from Invitrogen and p-(Y694) STAT-5 (D47E7) XP® (Cell Signaling Technology Cat# 4322) was from Cell Signaling. Recombinant human IL-2, recombinant murine IL-7 and recombinant human IL-15 were purchased from the PeproTech, recombinant mouse IL-12 and recombinant human IL-18 were from Australia Biosearch and […] (N4) from Mimotopes. InVivoMAb anti-mouse PD-1 (Bio X Cell Cat# BE0146) and InVivoMAb rat IgG2a isotype control (Bio X Cell Cat# BE0251) were purchased from Bio X Cell. DNase I was from Sigma-Aldrich. Rabbit monoclonal PTP1B (Abcam Cat# ab244207) antibody for flow cytometry was from Abcam and mouse monoclonal PTPN2 6F3 antibody for immunoblotting and flow cytometry was from MédiMabs (Cat# MM-019-P). Mouse anti-actin (Thermo Fisher Scientific Cat# MA5-11866) from Invitrogen and mouse α-tubulin (Sigma-Aldrich Cat# T5168) was from Merck. The mouse anti-nuclear antibodies Ig’s (total IgA+G + M) ELISA Kit was from Alpha Diagnostic Int. and the Transaminase II Kit from Wako Pure Chemicals. FBS was purchased from Thermo Scientific, RPMI 1640, DMEM, MEM, HEPES, non-essential amino acids, penicillin/streptomycin, and sodium-pyruvate were from Invitrogen, collagenase type IV was purchased from Worthington Biochemical and ABBV-CLS-484 was from MedChemExpress (Cat# HY-145923).
compound,measurement,setting,value
"CC(C)(O)CCOc1ccc2cc(O)c(N3CC(=O)NS3(=O)=O)c(F)c2c1 [Compound 182, 5-(1-Fluoro-3-hydroxy-7-(3-hydroxy-3-methylbutoxy)naphthalen-2-yl)−1,2,5-thiadiazolidin-3-one 1,1-dioxide]","p-SFK MFI, single replicates",[1]; TCR cross-linking time 0,92.6 and 93.9 and 88
same,"p-SFK MFI, single replicates",[1]; TCR cross-linking time 2,252 (2×) and 216
same,"p-SFK MFI, single replicates",[1]; TCR cross-linking time 5,211 and 192 and 269
same,"p-SFK MFI, single replicates",[1]; TCR cross-linking time 10,178 and 172 and 193
same,"p-SFK, column mean","[1]; 10 uM, mean over all times, two-way ANOVA, Fig. 2D",184.1
same,"p-SFK, group mean (Mean 2)","[1]; 10 uM, time 0, N 3, Fig. 2D",91.5
same,"p-SFK, group mean (Mean 2)","[1]; 10 uM, time 2, N 3, Fig. 2D",240
same,"p-SFK, group mean (Mean 2)","[1]; 10 uM, time 5, N 3, Fig. 2D",224
same,"p-SFK, group mean (Mean 2)","[1]; 10 uM, time 10, N 3, Fig. 2D",181
same,TCR-induced SFK Y418 phosphorylation (p-SFK),[1]; α-CD3/IgG crosslinking,enhanced
same,NK cell proliferation,NK cells,did not enhance
same,"repression of tumor growth, dosing every two days compared with every three days",AT3-OVA mammary tumors; 10 mg/kg i.v.,more pronounced
same,"AT3-OVA tumor growth, administration every three days","AT3-OVA mammary tumors; 10 mg/kg i.v., days 9-27, Supplementary Fig. 8",represses
same,growth of AT3-OVA mammary tumors,AT3-OVA mammary tumors; 10 mg/kg intravenously every 2 days or every 3 days,effectively repressed the growth
same,Tumour weight d21 (median),"AT3-OVA mammary tumors; AT-3-OVA, Figure 3A, column B, n=8","100.0, n=8"
same,"Tumour weights, individual mice","AT3-OVA mammary tumors; C57BL/6, CMP-182 10 mg, n=8, Figure 5B",126 and 340 and 344 and 76 and 85 and 190 and 183 and 281
same,"Tumour growth, individual mice","AT3-OVA mammary tumors; C57BL/6, CMP-182 10 mg, n=8, day 0 post injection, in mm2",38.86 and 38.76 and 36.96 and 20 and 19.89 and 39.65 and 32.33 and 44.53
same,"Tumour growth, individual mice","AT3-OVA mammary tumors; C57BL/6, CMP-182 10 mg, n=8, day 2 post injection, in mm2",46.62 and 45 and 45.75 and 21.2 and 22.26 and 46.15 and 36.4 and 52
same,"Tumour growth, individual mice","AT3-OVA mammary tumors; C57BL/6, CMP-182 10 mg, n=8, day 4 post injection, in mm2",40.6 and 37.95 and 45.6 and 22.4 and 21.42 and 37.21 and 29.5 and 55.61
same,"Tumour growth, individual mice","AT3-OVA mammary tumors; C57BL/6, CMP-182 10 mg, n=8, day 7 post injection, in mm2",35.1 and 40.02 and 49.4 and 25.2 and 27.54 and 44.85 and 32.5 and 53.6
same,"Tumour growth, individual mice","AT3-OVA mammary tumors; C57BL/6, CMP-182 10 mg, n=8, day 9 post injection, in mm2",40.2 and 41.76 and 56.44 and 28.35 and 33.04 and 52.56 and 37.95 and 65.25
same,"Tumour growth, individual mice","AT3-OVA mammary tumors; C57BL/6, CMP-182 10 mg, n=8, day 12 post injection, in mm2",40.8 and 47.74 and 66.43 and 30.15 and 33.63 and 55.5 and 42 and 70.2
same,"Tumour growth, individual mice","AT3-OVA mammary tumors; C57BL/6, CMP-182 10 mg, n=8, day 15 post injection, in mm2",42 and 55.44 and 75.75 and 31.5 and 34.22 and 60.84 and 45.26 and 76
same,Tumour size AT-3-OVA (group mean),"AT3-OVA mammary tumors; C57BL/6 n=8, time point 6, in mm2",21.8
same,Tumour size AT-3-OVA (group mean),"AT3-OVA mammary tumors; C57BL/6 n=8, time point 8, in mm2",21.97
same,Tumour size AT-3-OVA (group mean),"AT3-OVA mammary tumors; C57BL/6 n=8, time point 10, in mm2",23.3
same,Tumour size AT-3-OVA (group mean),"AT3-OVA mammary tumors; C57BL/6 n=8, time point 13, in mm2",25.76
same,Tumour size AT-3-OVA (group mean),"AT3-OVA mammary tumors; C57BL/6 n=8, time point 15, in mm2",29.09
same,Tumour size AT-3-OVA (group mean),"AT3-OVA mammary tumors; C57BL/6 n=8, time point 17, in mm2",31.79
same,Tumour size AT-3-OVA (group mean),"AT3-OVA mammary tumors; C57BL/6 n=8, time point 19, in mm2",33.9
same,Tumour size AT-3-OVA (group mean),"AT3-OVA mammary tumors; C57BL/6 n=8, time point 21, in mm2",36.99
same,Tumour size AT-3-OVA (group mean),"AT3-OVA mammary tumors; C57BL/6 n=8, time point 23, in mm2",41.18
same,"Tumour size AT-3-OVA, mean over all time points","AT3-OVA mammary tumors; C57BL/6 n=8, two-way RM ANOVA column mean, in mm2",29.53
same,"Tumour growth, single mice","AT3-OVA mammary tumors; day 6 post injection (first dose), 10 mg/kg i.v., in mm2",22.54 and 20.7 and 19.36 and 20.25 and 18.49 and 22.09 and 26.95 and 24
same,"Tumour growth, single mice","AT3-OVA mammary tumors; day 8 post injection, 10 mg/kg i.v., in mm2",22.08 and 20.7 and 20.68 and 20.91 and 19.78 and 21.15 and 25.97 and 24.48
same,"Tumour growth, single mice","AT3-OVA mammary tumors; day 10 post injection, 10 mg/kg i.v., in mm2",27.56 and 22.95 and 17.6 and 23.1 and 20.64 and 23.04 and 23.65 and 27.84
same,"Tumour growth, single mice","AT3-OVA mammary tumors; day 15 post injection, 10 mg/kg i.v., in mm2",37.95 and 25.76 and 21.12 and 24.36 and 20.64 and 28.62 and 35.75 and 38.5
same,"Tumour growth, single mice","AT3-OVA mammary tumors; day 23 post injection, 10 mg/kg i.v., in mm2",43.55 and 30 and 34.02 and 32.76 and 29.15 and 54.51 and 48.18 and 57.27
same,circulating aspartate aminotransferase (AST),[2]; 10 mg/kg i.v.,moderately increased
same,serum alanine aminotransferase (ALT),[2]; 10 mg/kg i.v.,unaffected
same,Serum ALT,"[2]; Figure 10C, individual mice, listed as CMP-182",680.498 and 1112.03 and 497.925 and 464.73 and 414.938 and 597.51 and 697.095 and 730.29
same,Serum AST,"[2]; Figure 10C, individual mice, listed as CMP-182, in U/L (unit assumed)",1826.92 and 3480.77 and 2019.23 and 1211.54 and 1250 and 1519.23 and 2346.15 and 4019.23
same,"GPT, median","[2]; Figure 10C, serum ALT, median, n=8","639.0, n=8"
same,"GOT, median","[2]; Figure 10C, serum AST, median, n=8","1923, n=8"
